Measured values from US20250026721A1, “COMPOUNDS AND METHODS FOR MODULATING RAS-PI3K” (Vividion Therapeutics, Inc., priority 2023, published 2025).

Legend:
PIK3CA = target: T1, PIK3CA (Homo sapiens, UniProt P42336); assay: In vitro ELISA target engagement assay for PIK3CA in Jurkat cellular lysate (competition with PIK3CA Biotin Probe); format: binding; details: 1 hour at rt, then 500 nM PIK3CA Biotin Probe, read-out: Elisa Target Engagement Assay (TE50)
T1 construct: endogenous in cells; host or cells: Jurkat cell lysate
T1 sequence (P42336 whole entry): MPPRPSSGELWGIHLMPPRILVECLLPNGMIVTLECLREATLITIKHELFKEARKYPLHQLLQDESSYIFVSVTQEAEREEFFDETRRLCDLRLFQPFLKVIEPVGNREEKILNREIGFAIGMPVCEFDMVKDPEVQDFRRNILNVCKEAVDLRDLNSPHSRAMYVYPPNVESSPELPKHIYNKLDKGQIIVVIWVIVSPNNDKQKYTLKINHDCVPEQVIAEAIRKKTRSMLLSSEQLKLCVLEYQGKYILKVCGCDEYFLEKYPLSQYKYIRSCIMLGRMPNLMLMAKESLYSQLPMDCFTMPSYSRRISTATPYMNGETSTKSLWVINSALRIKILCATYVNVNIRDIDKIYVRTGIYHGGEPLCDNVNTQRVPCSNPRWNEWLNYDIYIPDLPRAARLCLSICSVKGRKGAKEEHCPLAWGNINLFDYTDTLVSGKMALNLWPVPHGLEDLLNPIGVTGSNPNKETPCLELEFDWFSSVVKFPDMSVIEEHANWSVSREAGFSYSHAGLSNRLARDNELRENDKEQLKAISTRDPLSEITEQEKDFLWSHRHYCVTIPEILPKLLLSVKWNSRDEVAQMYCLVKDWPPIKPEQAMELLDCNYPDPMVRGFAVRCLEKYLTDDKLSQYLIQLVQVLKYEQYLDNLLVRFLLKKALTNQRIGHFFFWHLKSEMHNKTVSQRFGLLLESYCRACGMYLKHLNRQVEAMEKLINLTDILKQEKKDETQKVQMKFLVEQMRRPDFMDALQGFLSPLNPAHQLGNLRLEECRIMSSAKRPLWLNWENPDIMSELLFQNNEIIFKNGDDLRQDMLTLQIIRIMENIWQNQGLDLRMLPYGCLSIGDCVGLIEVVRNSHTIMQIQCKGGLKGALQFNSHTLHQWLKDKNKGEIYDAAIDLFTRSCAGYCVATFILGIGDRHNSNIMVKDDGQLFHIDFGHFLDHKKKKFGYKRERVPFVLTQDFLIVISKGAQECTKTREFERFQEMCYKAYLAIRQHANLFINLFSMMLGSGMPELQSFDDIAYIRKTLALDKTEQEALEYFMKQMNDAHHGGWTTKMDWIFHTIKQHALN
T1 sequence (P27986 whole entry partner): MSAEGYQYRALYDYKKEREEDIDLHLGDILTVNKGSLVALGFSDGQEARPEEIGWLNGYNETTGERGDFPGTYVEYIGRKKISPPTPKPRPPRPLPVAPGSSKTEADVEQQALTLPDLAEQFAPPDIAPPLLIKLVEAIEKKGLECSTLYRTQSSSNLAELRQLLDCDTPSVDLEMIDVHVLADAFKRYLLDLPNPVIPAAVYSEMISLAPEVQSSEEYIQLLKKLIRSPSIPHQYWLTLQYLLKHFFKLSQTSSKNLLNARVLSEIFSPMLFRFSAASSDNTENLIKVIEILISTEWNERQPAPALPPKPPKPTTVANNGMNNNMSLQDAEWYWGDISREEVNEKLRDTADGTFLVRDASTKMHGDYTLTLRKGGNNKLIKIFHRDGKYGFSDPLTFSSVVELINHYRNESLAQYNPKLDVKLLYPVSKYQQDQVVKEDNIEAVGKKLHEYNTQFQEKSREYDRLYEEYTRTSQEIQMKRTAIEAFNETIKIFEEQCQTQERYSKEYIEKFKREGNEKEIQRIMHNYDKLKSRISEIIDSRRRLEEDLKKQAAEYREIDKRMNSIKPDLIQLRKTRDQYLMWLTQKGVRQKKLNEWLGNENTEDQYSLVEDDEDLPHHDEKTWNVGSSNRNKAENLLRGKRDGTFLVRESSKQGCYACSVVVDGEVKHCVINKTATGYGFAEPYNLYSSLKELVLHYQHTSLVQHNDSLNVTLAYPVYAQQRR
Outline: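 Jurkat lysate from sonicated frozen cells was preincubated 1 h at rt with serially diluted compound up to 200 μM, then labelled 1 h at rt with PIK3CA biotin probe at 500 nM final. Probe-bound PIK3CA was captured on antibody-coated plates and detected with Neutravidin-HRP luminescence; TE50 derived from the dose response.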

[1] = test system: pAKT(S473) in FaDu cell line; assay: In vitro Phospho-AKT(S473) HTRF analysis in FaDu cells; format: cell-based; details: Homo sapiens, 0.5 h; for IC50: FaDu cells, 30 minutes at 37° C.; for Emax: FaDu, read-out: FaDu pAKT Imax % control
Experimental: Example 5. In Vitro Phosgho-AKT(S473) Analysis
Functional activity of the compounds to inhibit pAKT were assessed in FaDu or H358 cell lines as indicated below.
• Complete Media • FBS, Corning catalog #35-010-CV • Anti-Anti, Gibco catalog #15240-062 • 96 well plate, Corning catalog #3610 • TrypLE, Gibco catalog #12604013 • Phospho-AKT(S473) HTRF kit, Cisbio catalog #64AKSPET
Cells were detached from the tissue culture flask with TrypLE. The cells were pelleted at 500×g for 5 min, TrypLe was removed and then resuspended in the necessary volume of media+1% FBS to give the appropriate cell density (17,500 cells/mL for FaDu; 20,000 cells/mL for H358). 100 μL of cell suspension/well was dispensed into the 96-well plate while keeping the outer wells of the plate free of cells and filled with PBS to prevent evaporation of interior wells. The plate was incubated at 37° C. and allowed to adhere overnight. The cells were treated with a dose response of compound and incubated at 37° C. for 30 minutes. The cells were then processed and pAKT(S473) levels were assessed following the specifications of the Cisbio HTRF kit.

PIK3CA_C242 = target: T2, PIK3CA_C242 (Homo sapiens, UniProt P42336); assay: Proteomic TE50 (IA-DTB / TMT mass spectrometry) in Jurkat cell lysate; format: binding; details: 1 hour at rt, 7-point dose response
T2 construct: endogenous in cells; host or cells: Jurkat cell lysate
T2 sequence (P42336 whole entry): as the sequence (P42336 whole entry) above
T2 sequence (P27986 whole entry partner): as the sequence (P27986 whole entry partner) above
Outline: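 Jurkat lysate (500 μg) treated with compound (7-point, 1:5 dilutions) for 1 h at rt, then labelled with 200 μM IA-DTB for 1 h. After digestion and streptavidin enrichment, the C242 peptide was quantified by targeted MS3 TMT. TE50 was derived from reporter-ion S/N dose-response curves.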

SMILES | IC50 (PIK3CA) | IC50 [1] | IC50 (PIK3CA_C242) | Emax [1]
C[C@H](/C=C\S(C)(=O)=O)NC(=O)[C@@]1(F)CCCN(C(=O)[C@H]2CN(CC(F)(F)F)C[C@H]2c2ccc(F)cc2Cl)CC1 (single isomer, unassigned) [Compound 167, (R)-1-((3*R,4*R)-4-(2-chloro-4-fluorophenyl)-1-(2,2,2-trifluoroethyl)pyrrolidine-3-carbonyl)-4-fluoro-N-((R,Z)-4-(methylsulfonyl)but-3-en-2-yl)azepane-4-carboxamide] | 580 nM | 518 nM |  | 93.6%
C[C@@H](/C=C\S(C)(=O)=O)NC(=O)C1(F)CCN(S(=O)(=O)c2ccc(Br)cc2-c2ccccc2Cl)CC1 [Compound 62, (S,Z)-1-((5-bromo-2′-chloro-[1,1′-biphenyl]-2-yl)sulfonyl)-4-fluoro-N-(4-(methylsulfonyl)but-3-en-2-yl)piperidine-4-carboxamide] |  | 27.5 nM |  | 85.2%
CCCCCOc1cccc(-c2cc(Cl)ccc2S(=O)(=O)N2CCC(F)(C(=O)N[C@@H](C)/C=C\S(C)(=O)=O)CC2)c1 [Compound 262, (S,Z)-1-((5-chloro-3′-(pentyloxy)-[1,1′-biphenyl]-2-yl)sulfonyl)-4-fluoro-N-(4-(methylsulfonyl)but-3-en-2-yl)piperidine-4-carboxamide] | 780 nM |  | 430 nM | 
C[C@@H](/C=C\S(C)(=O)=O)NC(=O)C1(F)CCN(S(=O)(=O)c2ccc(Cl)cc2-c2cccc(OC3CCC3)c2)CC1 [Compound 263, (S,Z)-1-((5-chloro-3′-cyclobutoxy-[1,1′-biphenyl]-2-yl)sulfonyl)-4-fluoro-N-(4-(methylsulfonyl)but-3-en-2-yl)piperidine-4-carboxamide] | 1000 nM |  | 930 nM | 
C[C@@H](/C=C\S(C)(=O)=O)NC(=O)C1(F)CCN(S(=O)(=O)c2ccc(Cl)cc2-c2cccc(OCc3cccc(Cl)c3)c2)CC1 [Compound 266, (S,Z)-1-((5-chloro-3′-((3-chlorobenzyl)oxy)-[1,1′-biphenyl]-2-yl)sulfonyl)-4-fluoro-N-(4-(methylsulfonyl)but-3-en-2-yl)piperidine-4-carboxamide] | 750 nM |  | 600 nM | 
C[C@H](/C=C\S(C)(=O)=O)NC(=O)C1(F)CCN(S(=O)(=O)c2cn(C)c(=O)cc2-c2ccccc2Cl)CC1 [Compound 274, (R,Z)-1-((4-(2-chlorophenyl)-1-methyl-6-oxo-1,6-dihydropyridin-3-yl)sulfonyl)-4-fluoro-N-(4-(methylsulfonyl)but-3-en-2-yl)piperidine-4-carboxamide] | 1100 nM |  | 570 nM | 
C[C@H](/C=C\S(C)(=O)=O)NC(=O)C1(F)CCN(S(=O)(=O)c2cc(=O)n(C)cc2-c2ccccc2Cl)CC1 [Compound 275, (R,Z)-1-((5-(2-chlorophenyl)-1-methyl-2-oxo-1,2-dihydropyridin-4-yl)sulfonyl)-4-fluoro-N-(4-(methylsulfonyl)but-3-en-2-yl)piperidine-4-carboxamide] | 1300 nM |  | 910 nM | 
CCCNC(=O)c1cccc(-c2cc(Cl)ccc2S(=O)(=O)N2CCC(F)(C(=O)N[C@@H](C)/C=C\S(C)(=O)=O)CC2)c1 [Compound 279, (S,Z)-1-((5-chloro-3′-(propylcarbamoyl)-[1,1′-biphenyl]-2-yl)sulfonyl)-4-fluoro-N-(4-(methylsulfonyl)but-3-en-2-yl)piperidine-4-carboxamide] | 1000 nM |  | 1530 nM | 

Further lines, with some results ahead:

IC50 (PIK3CA) | IC50 [1] | IC50 (PIK3CA_C242) | SMILES | Emax [1]
280 nM | 248 nM |  | CC(O)c1ccc(S(=O)(=O)N2CC[C@@](F)(C(=O)N[C@H](C)/C=C/C(=O)N3CC(F)(F)C3)C[C@H]2C)c(-c2ccccc2Cl)c1 (mixture of isomers) [Compound 252, (2R,4S)-1-((2′-chloro-5-((RS)-1-hydroxyethyl)-[1,1′-biphenyl]-2-yl)sulfonyl)-N-((R,E)-5-(3,3-difluoroazetidin-1-yl)-5-oxopent-3-en-2-yl)-4-fluoro-2-methylpiperidine-4-carboxamide] | 85.8%
300 nM | 187 nM |  | C[C@H](/C=C\S(C)(=O)=O)NC(=O)[C@@]1(F)CCCN(C(=O)[C@H]2CN(CC(F)(F)F)C[C@H]2c2cc(F)ccc2Cl)CC1 (single isomer, unassigned) [Compound 166, (R)-1-((3*R,4*R)-4-(2-chloro-5-fluorophenyl)-1-(2,2,2-trifluoroethyl)pyrrolidine-3-carbonyl)-4-fluoro-N-((R,Z)-4-(methylsulfonyl)but-3-en-2-yl)azepane-4-carboxamide] | 78.9%
150 nM |  | 210 nM | C[C@@H](/C=C\S(C)(=O)=O)NC(=O)C1(F)CCN(S(=O)(=O)c2ccc(Cl)cc2-c2cccc(OCc3cccnc3)c2)CC1 [Compound 260, (S,Z)-1-((5-chloro-3′-(pyridin-3-ylmethoxy)-[1,1′-biphenyl]-2-yl)sulfonyl)-4-fluoro-N-(4-(methylsulfonyl)but-3-en-2-yl)piperidine-4-carboxamide] | 
480 nM |  | 730 nM | COc1cccc(COc2cccc(-c3cc(Cl)ccc3S(=O)(=O)N3CCC(F)(C(=O)N[C@@H](C)/C=C\S(C)(=O)=O)CC3)c2)c1 [Compound 261, (S,Z)-1-((5-chloro-3′-((3-methoxybenzyl)oxy)-[1,1′-biphenyl]-2-yl)sulfonyl)-4-fluoro-N-(4-(methylsulfonyl)but-3-en-2-yl)piperidine-4-carboxamide] | 
480 nM |  | 510 nM | CC#CCOc1cccc(-c2cc(Cl)ccc2S(=O)(=O)N2CCC(F)(C(=O)N[C@@H](C)/C=C\S(C)(=O)=O)CC2)c1 [Compound 264, (S,Z)-1-((3′-(but-2-yn-1-yloxy)-5-chloro-[1,1′-biphenyl]-2-yl)sulfonyl)-4-fluoro-N-(4-(methylsulfonyl)but-3-en-2-yl)piperidine-4-carboxamide] | 
330 nM |  | 390 nM | C[C@@H](/C=C\S(C)(=O)=O)NC(=O)C1(F)CCN(S(=O)(=O)c2ccc(Cl)cc2-c2cccc(OCc3ccccc3Cl)c2)CC1 [Compound 265, (S,Z)-1-((5-chloro-3′-((2-chlorobenzyl)oxy)-[1,1′-biphenyl]-2-yl)sulfonyl)-4-fluoro-N-(4-(methylsulfonyl)but-3-en-2-yl)piperidine-4-carboxamide] | 
90 nM |  | 63 nM | C[C@@H](/C=C\S(C)(=O)=O)NC(=O)C1(F)CCN(S(=O)(=O)c2ccc(Cl)cc2-c2cccc(OCc3ccccn3)c2)CC1 [Compound 269, (S,Z)-1-((5-chloro-3′-(pyridin-2-ylmethoxy)-[1,1′-biphenyl]-2-yl)sulfonyl)-4-fluoro-N-(4-(methylsulfonyl)but-3-en-2-yl)piperidine-4-carboxamide] | 
170 nM |  | 209 nM | COc1ccc(Cl)c(-c2cc(Cl)ncc2S(=O)(=O)N2CCC(F)(C(=O)N[C@@H](C)/C=C\S(C)(=O)=O)CC2)c1 [Compound 271, (S,Z)-1-((6-chloro-4-(2-chloro-5-methoxyphenyl)pyridin-3-yl)sulfonyl)-4-fluoro-N-(4-(methylsulfonyl)but-3-en-2-yl)piperidine-4-carboxamide] | 
97 nM |  | 82 nM | C[C@H](/C=C\S(C)(=O)=O)NC(=O)C1(F)CCN(S(=O)(=O)c2cnc(Br)cc2-c2ccccc2Cl)CC1 [Compound 277, (R,Z)-1-((6-bromo-4-(2-chlorophenyl)pyridin-3-yl)sulfonyl)-4-fluoro-N-(4-(methylsulfonyl)but-3-en-2yl)piperidine-4-carboxamide] | 
